In one data set the test system is HUVECs. Nature of the data set: Mitochondrial stress (Seahorse OCR/ECAR, NAD+/NADH) in gapmeR-transfected HUVECs. The format is cell-based, human. On the procedure: FIGS. 13A-D. Accumulating DNA damage and its effect on mitochondrial stress. (A) Oxidative consumption rate (OCR) and extracellular acidification rate (ECAR). The bars from left to right represent control, control+NR, SNHG12 KD, and SNHG12 KD+NR, respectively. (B) in HUVECs transfected with the indicated gapmeRs in the absence or presence of NR (500 μM, 24 hrs) (n=3). P value was determined by one-way analysis of variance (ANOVA) (Fisher's test). The bars from left to right represent control, control+NR, SNHG12 KD, and SNHG12 KD+NR, respectively. (C) SNHG12 expression or (D) ratio of NAD+ to […] in gapmeR-transfected HUVECs in the absence or presence of NR (n=3). P value was determined by Student's t test. For all panels, values are mean±SD; *p<0.05, **p<0.01; ***p<0.001; ****p<0.0001.
Mitochondrial dysfunction is a hallmark of senescence and reparative responses during oxidative insults requires effective energy metabolism. Oxidative stress-induced DNA damage activates NAD+ consumption pathways (31). Examination of the effect of SNHG12 knockdown on key mitochondrial activities such as mitochondrial respiration and glycolysis in ECs used Seahorse analyses. Loss of SNHG12 decreased the extracellular acidification rate (ECAR) and oxygen consumption rate (OCR) of live cells (FIGS. 13A, 13B). […]

The subject of the next data set is LDLR−/− mice. Nature of the data set: NR rescue of SNHG12-gapmeR accelerated atherosclerosis in LDLR−/− mice. In kind it is in vivo, mouse. On the procedure:
FIGS. 5A-G. NR rescued progression of atherosclerotic lesions in LDLR^−/− mice induced by SNHG12 silencing. (A) LDLR^−/− mice were i.v. injected with vehicle control or SNHG12-gapmeR (7.5 mg/kg/mouse) twice per week and placed on an HCD containing NR (400 mg/kg/day) for 12 weeks (n=12 per group). (B) Lesion areas were quantified using ORO area on aortic sinus sections (n=10 per group). Fold change was calculated compared to groups from study 1 as described in FIG. 1. P value was determined by Student's t test. (C) Lesional DNA damage in the vascular endothelium of the aortic arch was quantified in LDLR^−/− mice by γH2AX with nuclear co-localization with DAPI in CD31^+ cells compared to study 1. RT-qPCR analysis for (D) SNHG12 and (E) markers of senescence p16, p21, and p27 from RNA isolated of the aortic intima of mice placed on HCD containing NR (n=6 per group). P value was determined by Student's t test. (F) Acellular areas were measured in the aortic sinus for each of the indicated groups (n=6 per group; 2-3 lesion per mice). (G) TUNEL staining was quantified in the aortic sinus for each of the indicated groups (n=7 per group). P value was determined by Student's t test. For all panels, values are mean±SD; *p<0.05, **p<0.01; ***p<0.001; ****p<0.0001.
Furthermore, administration of the NAD^+ precursor NR can limit DNA damage. […] To assess whether SNHG12-deficient lesion progression involves increased DNA damage, SNHG12-gapmeR was delivered i.v. as described in (FIG. 1F) and the HCD was supplemented with NR (400 mg/kg/day) (FIG. 5A). […] Moreover, NR administration abrogated the SNHG12-gapmeR mediated effect on increased γH2AX foci in lesional ECs in the aortic arch (FIG. 5C). Consistent with less DNA damage, the induction of the senescence markers p16, p21, and p27 fell in the presence of NR compared to LDLR^−/− mice treated with SNHG12-gapmeRs without NR (FIGS. 5D, 5E). […] Taken together, the rescue effects mediated by NR strongly support the findings that the lncRNA SNHG12 regulates the DDR both in vitro and in vivo.

Another data set addresses T1, DNA-PK (Homo sapiens, UniProt P78527).
T1 construct: lncRNA pulldown using nuclear protein extract from HUVECs; endogenous in cells; host or cells: HUVEC nuclear protein lysate
The data set is described as follows: lncRNA pulldown of biotinylated SNHG12 domain deletion constructs. As to conditions: pulldown with HUVEC nuclear protein lysate. In kind it is binding. From the text: (A) Proteins identified in pulldowns of biotinylated SNHG12; DNA-PK bound specifically to SNHG12 compared to negative control LacZ (n=2, two technical replicates each). (B) Immunoblotting for DNA-PK, ATM, ATR, Ku80, Ku70, p53, and control on nuclear protein lysate from HUVECs after lncRNA pulldown (n=5). (C) Analysis after streptavidin pulldown of nuclear protein lysate derived from the aorta of C57B1/6 mice following two i.v. injections of biotin-labeled SNHG12 compared to LacZ (n=4 per group). (D, E) Predicted secondary structure of SNHG12 with indicated deletions of domains 1˜4 used for subsequent lncRNA pulldown of biotinylated SNHG12 domain deletion constructs (n=4). P value was determined by one-way analysis of variance (ANOVA) (Fisher's test). (F) IP for DNA-PK following RNA isolation and subsequent RT-qPCR for SNHG12 and for negative control HPRT (n=5). […] Immunoblotting for Ku70, Ku80 and DNA-PK and (H) quantification under H2O2 conditions (n=3). […]
To identify potential SNHG12-interacting proteins that may inform mechanisms underlying these findings, biotin-labeled T7 in vitro transcribed SNHG12 or LacZ was incubated with nuclear protein lysate of HUVECs (FIG. 9A). […] Furthermore, biophysical studies determined the equilibrium dissociation constant (KD) for the SNHG12-DNA-PK interaction (1.318E-07 μM) (FIG. 9E). […]

T1 sequence (P78527 whole entry): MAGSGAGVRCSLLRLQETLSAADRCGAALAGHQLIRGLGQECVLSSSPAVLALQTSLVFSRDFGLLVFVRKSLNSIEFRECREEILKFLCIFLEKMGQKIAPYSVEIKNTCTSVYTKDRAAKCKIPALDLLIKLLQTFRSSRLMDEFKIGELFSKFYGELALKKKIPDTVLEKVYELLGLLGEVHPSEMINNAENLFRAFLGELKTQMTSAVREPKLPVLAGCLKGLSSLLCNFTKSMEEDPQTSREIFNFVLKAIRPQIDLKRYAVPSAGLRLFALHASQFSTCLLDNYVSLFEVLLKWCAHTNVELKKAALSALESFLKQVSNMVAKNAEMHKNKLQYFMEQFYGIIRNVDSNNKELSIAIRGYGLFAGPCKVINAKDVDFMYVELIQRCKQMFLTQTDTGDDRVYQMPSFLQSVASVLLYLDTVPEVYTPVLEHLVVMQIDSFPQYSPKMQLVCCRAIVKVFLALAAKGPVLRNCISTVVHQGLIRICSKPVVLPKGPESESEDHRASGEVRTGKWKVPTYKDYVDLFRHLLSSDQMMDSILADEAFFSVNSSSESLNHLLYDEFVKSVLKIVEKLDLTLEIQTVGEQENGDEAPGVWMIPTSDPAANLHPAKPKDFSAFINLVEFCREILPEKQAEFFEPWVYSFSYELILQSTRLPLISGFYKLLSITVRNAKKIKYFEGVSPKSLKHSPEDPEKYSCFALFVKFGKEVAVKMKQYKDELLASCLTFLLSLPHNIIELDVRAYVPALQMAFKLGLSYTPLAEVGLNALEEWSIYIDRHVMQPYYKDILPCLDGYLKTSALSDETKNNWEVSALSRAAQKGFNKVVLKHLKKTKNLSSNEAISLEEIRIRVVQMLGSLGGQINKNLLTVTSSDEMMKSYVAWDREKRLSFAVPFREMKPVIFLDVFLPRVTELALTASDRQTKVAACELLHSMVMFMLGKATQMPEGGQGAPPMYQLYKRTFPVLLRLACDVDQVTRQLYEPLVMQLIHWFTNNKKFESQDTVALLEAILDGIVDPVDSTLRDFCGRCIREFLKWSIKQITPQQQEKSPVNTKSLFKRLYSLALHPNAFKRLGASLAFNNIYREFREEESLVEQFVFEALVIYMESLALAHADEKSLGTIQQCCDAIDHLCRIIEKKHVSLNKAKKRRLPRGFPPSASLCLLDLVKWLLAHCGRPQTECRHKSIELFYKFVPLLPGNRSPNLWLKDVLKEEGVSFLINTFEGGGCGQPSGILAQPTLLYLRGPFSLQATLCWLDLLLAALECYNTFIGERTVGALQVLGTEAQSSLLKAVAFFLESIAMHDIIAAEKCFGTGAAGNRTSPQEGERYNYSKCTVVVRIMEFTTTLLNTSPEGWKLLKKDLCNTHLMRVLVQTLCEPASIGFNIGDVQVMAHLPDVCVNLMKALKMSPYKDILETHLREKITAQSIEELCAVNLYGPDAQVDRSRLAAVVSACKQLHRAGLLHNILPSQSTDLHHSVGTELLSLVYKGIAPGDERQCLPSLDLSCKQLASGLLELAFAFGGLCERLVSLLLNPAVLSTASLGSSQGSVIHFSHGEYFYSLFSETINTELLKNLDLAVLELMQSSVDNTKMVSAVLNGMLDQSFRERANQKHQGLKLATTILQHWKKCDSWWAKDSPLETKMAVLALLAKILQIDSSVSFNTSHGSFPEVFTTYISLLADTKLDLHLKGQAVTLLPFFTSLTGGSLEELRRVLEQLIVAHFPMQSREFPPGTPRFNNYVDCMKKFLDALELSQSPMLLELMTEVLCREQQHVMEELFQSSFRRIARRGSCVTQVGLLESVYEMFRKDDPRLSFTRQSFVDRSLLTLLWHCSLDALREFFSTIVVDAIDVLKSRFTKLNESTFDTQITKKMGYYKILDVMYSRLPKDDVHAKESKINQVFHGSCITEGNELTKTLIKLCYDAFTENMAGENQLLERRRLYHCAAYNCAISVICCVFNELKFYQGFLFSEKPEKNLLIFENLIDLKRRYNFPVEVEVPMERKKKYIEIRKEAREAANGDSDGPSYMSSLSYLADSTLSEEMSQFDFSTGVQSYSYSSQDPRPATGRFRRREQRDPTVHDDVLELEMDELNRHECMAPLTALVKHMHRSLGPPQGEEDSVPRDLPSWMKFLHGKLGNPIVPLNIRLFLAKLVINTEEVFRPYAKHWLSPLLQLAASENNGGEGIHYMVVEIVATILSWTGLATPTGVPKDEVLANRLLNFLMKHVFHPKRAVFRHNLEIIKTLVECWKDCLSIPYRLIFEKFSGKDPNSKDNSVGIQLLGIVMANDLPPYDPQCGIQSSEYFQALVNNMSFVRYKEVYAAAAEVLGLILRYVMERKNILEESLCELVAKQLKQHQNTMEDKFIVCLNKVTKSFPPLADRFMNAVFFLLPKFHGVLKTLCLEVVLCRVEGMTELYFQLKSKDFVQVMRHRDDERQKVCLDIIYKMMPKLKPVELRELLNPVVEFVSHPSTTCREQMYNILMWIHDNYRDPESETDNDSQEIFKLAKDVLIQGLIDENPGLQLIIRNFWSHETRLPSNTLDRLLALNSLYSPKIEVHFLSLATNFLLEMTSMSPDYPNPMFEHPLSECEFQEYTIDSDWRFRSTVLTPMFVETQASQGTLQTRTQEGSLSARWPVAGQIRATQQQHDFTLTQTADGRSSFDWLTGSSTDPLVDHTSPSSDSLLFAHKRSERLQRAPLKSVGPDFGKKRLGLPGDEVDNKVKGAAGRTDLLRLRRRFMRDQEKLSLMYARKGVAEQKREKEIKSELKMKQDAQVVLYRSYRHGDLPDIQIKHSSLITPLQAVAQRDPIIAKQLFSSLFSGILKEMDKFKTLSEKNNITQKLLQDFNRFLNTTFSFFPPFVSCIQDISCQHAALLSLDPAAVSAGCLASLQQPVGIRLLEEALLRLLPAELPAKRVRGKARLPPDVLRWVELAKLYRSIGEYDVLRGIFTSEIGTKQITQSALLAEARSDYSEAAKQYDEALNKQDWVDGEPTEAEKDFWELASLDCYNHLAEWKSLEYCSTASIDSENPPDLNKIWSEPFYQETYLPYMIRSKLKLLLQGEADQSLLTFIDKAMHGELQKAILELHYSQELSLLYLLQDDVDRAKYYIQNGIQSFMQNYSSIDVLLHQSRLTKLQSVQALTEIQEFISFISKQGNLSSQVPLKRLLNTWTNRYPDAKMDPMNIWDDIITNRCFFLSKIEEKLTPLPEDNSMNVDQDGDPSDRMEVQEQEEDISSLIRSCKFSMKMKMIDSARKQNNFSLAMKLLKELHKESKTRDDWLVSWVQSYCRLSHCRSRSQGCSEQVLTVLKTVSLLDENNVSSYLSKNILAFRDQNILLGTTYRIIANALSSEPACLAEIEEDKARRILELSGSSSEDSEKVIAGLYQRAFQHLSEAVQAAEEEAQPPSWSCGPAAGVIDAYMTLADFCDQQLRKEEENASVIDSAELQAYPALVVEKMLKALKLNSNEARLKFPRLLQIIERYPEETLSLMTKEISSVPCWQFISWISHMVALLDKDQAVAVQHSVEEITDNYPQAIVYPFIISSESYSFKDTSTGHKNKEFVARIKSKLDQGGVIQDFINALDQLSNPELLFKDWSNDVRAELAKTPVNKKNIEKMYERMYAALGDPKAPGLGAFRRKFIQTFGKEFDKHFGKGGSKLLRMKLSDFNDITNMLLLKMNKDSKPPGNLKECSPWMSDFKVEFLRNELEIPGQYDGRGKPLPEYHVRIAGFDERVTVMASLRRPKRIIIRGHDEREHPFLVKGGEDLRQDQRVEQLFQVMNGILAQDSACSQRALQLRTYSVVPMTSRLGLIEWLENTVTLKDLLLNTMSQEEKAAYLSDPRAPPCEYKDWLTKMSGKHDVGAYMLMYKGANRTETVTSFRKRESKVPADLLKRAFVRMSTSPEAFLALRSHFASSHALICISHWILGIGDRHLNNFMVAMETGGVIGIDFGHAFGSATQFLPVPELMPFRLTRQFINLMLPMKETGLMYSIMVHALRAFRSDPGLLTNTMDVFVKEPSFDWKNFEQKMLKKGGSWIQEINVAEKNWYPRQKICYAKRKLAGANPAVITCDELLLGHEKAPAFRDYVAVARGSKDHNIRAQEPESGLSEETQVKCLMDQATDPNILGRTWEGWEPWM

Consider `NC(=O)c1ccc[n+]([C@@H]2O[C@H](CO)[C@@H](O)[C@H]2O)c1` [NR, Nicotinamide Riboside], for which the SNHG12 expression result in the data set on HUVECs (NR 500 μM, 24 hrs) was “did not affect”. Also, in the data set on HUVECs (gapmeR-transfected HUVECs, absence or presence of NR), the “NAD+/NADH ratio” value was “partially rescued”. The “increase in lesion areas by ORO between SNHG12-gapmeR and control-gapmeR groups on NR” value in the data set with LDLR−/− mice (HCD with NR 400 mg/kg/day, 12 weeks, P=0.1729) is on record as “no significant”. Also, the “SNHG12-gapmeR mediated increase of γH2AX foci in lesional ECs in the aortic arch” value with LDLR−/− mice (NR 400 mg/kg/day, 12 weeks) is recorded as “abrogated”. Also, in the data set on LDLR−/− mice (aortic intima, NR 400 mg/kg/day), the “induction of senescence markers p16, p21, and p27 compared to SNHG12-gapmeR without NR” value was “fell”. In the data set with LDLR−/− mice (aortic sinus, NR 400 mg/kg/day), the “TUNEL positive cells compared to groups without NR” value was “reduced” and the “differences in plaque necrosis” value is on record as “eliminated differences”.

B1: Deletion of domain-4: biotinylated SNHG12 construct with predicted secondary-structure domain 4 deleted (nucleic acid, listed as Homo sapiens)
chain: TGCAAGCCTCTGCCTGCCTTCCTGCGCGCCGTTCCCCGCTAGTCGCTGCTGCTGGCGCGCACTCGCCGGGTTTTTCCTCCCACGGCCTCGAGATGGTGGTGAATGTGGCACGGAGGAGCCGGGCCTTCCAACCCGGTGGGCCCGAGCTCCGAAAGGCCCCCTCGGCAGTGAGAGGGGCGGGAGCCCGCGGGGGCCGCGCCCTTCTCTCGCTTCGGACTGCGCAACGCTGCGCTCTGGGCTGACAGGCGGATAAAACGGTCCCATCAAGACTGAGAAAAAGCACACCAGCTATTGGCACAGCGTGGGCAGTGGGGCCTACAGGATGACTGACTTAGTCTACAGAGATCCCGGCGTACTTAAGCAGATGAAGACTCTTAAGATGACAGAAGGTGATTTTTCTGGTGATCGAGGACTTCCGGGGTAATGACAGTGATGAAATGCAGGGGACCTGGTTGCCCCCAAGTTTCCTGGCAGTGTGTGATACTGAGGAGGTGAGCTTGTTTCTGGAGCTGTGCTTTAAGGTAAAGTTGATCAGCTTAATCCTCCTGATCCCTTTCCCA
modifications: biotin
notes: biotinylated SNHG12 construct with predicted secondary-structure domain 4 deleted
In the case of B1, the “reduction of DNA-PK binding” value with DNA-PK was ~50%.
